Laboratory results reported in the NIST ThermoML archive (doi:10.1016/j.jct.2012.07.024).
± gives the expanded uncertainty stated by the source.

Key:
[1] = 101.33 kPa, Liquid; for viscosity: Concentric cylinders viscometry; for mass density: Vibrating tube method
[2] = refractive index (Na D-line) (dimensionless); settings: 101.33 kPa, Liquid, Standard Abbe refractometry

CC(O)CO (stereo not given) [1,2-propanediol]
viscosity ([1]; 288.15 K): 82.86 ± 1.8 mPa·s | mass density ([1]; 288.15 K): 1039.87 ± 0.14 kg/m3 | viscosity ([1]; 293.15 K): 59.84 ± 1.2 mPa·s | mass density ([1]; 293.15 K): 1036.25 ± 0.14 kg/m3 | viscosity ([1]; 298.15 K): 44.19 ± 0.9 mPa·s | mass density ([1]; 298.15 K): 1032.59 ± 0.13 kg/m3 | viscosity ([1]; 303.15 K): 33.29 ± 0.68 mPa·s | mass density ([1]; 303.15 K): 1028.88 ± 0.13 kg/m3 | viscosity ([1]; 308.15 K): 25.54 ± 0.52 mPa·s | mass density ([1]; 308.15 K): 1025.14 ± 0.13 kg/m3 | viscosity ([1]; 313.15 K): 19.92 ± 0.41 mPa·s | mass density ([1]; 313.15 K): 1021.35 ± 0.13 kg/m3 | viscosity ([1]; 318.15 K): 15.79 ± 0.32 mPa·s | mass density ([1]; 318.15 K): 1017.52 ± 0.13 kg/m3 | viscosity ([1]; 323.15 K): 12.76 ± 0.26 mPa·s | mass density ([1]; 323.15 K): 1013.66 ± 0.13 kg/m3 | viscosity ([1]; 328.15 K): 10.35 ± 0.21 mPa·s | mass density ([1]; 328.15 K): 1009.75 ± 0.13 kg/m3 | viscosity ([1]; 333.15 K): 8.586 ± 0.18 mPa·s | mass density ([1]; 333.15 K): 1005.79 ± 0.13 kg/m3 | refractive index ([2]; 288.15 K): 1.43425 ± 0.00033 | refractive index ([2]; 293.15 K): 1.4326 ± 0.00033 | refractive index ([2]; 298.15 K): 1.43093 ± 0.00033 | refractive index ([2]; 303.15 K): 1.42927 ± 0.00033 | refractive index ([2]; 308.15 K): 1.4276 ± 0.00033 | refractive index ([2]; 313.15 K): 1.4259 ± 0.00033 | refractive index ([2]; 318.15 K): 1.42422 ± 0.00033 | refractive index ([2]; 323.15 K): 1.42252 ± 0.00033 | refractive index ([2]; 328.15 K): 1.42078 ± 0.00033 | refractive index ([2]; 333.15 K): 1.41909 ± 0.00033

OCCCO [propan-1,3-diol]
viscosity ([1]; 288.15 K): 68.06 ± 1.5 mPa·s | mass density ([1]; 288.15 K): 1055.96 ± 0.95 kg/m3 | viscosity ([1]; 293.15 K): 52.75 ± 1.2 mPa·s | mass density ([1]; 293.15 K): 1052.87 ± 0.95 kg/m3 | viscosity ([1]; 298.15 K): 41.97 ± 0.95 mPa·s | mass density ([1]; 298.15 K): 1049.76 ± 0.94 kg/m3 | viscosity ([1]; 303.15 K): 33.56 ± 0.76 mPa·s | mass density ([1]; 303.15 K): 1046.64 ± 0.93 kg/m3 | viscosity ([1]; 308.15 K): 27.15 ± 0.61 mPa·s | mass density ([1]; 308.15 K): 1043.5 ± 0.93 kg/m3 | viscosity ([1]; 313.15 K): 22.22 ± 0.5 mPa·s | mass density ([1]; 313.15 K): 1040.35 ± 0.92 kg/m3 | viscosity ([1]; 318.15 K): 18.35 ± 0.41 mPa·s | mass density ([1]; 318.15 K): 1037.18 ± 0.91 kg/m3 | viscosity ([1]; 323.15 K): 15.29 ± 0.34 mPa·s | mass density ([1]; 323.15 K): 1033.98 ± 0.91 kg/m3 | viscosity ([1]; 328.15 K): 12.84 ± 0.29 mPa·s | mass density ([1]; 328.15 K): 1030.77 ± 0.9 kg/m3 | viscosity ([1]; 333.15 K): 10.96 ± 0.25 mPa·s | mass density ([1]; 333.15 K): 1027.53 ± 0.89 kg/m3 | refractive index ([2]; 288.15 K): 1.44073 ± 0.00051 | refractive index ([2]; 293.15 K): 1.43932 ± 0.00051 | refractive index ([2]; 298.15 K): 1.43792 ± 0.00051 | refractive index ([2]; 303.15 K): 1.43654 ± 0.00051 | refractive index ([2]; 308.15 K): 1.43513 ± 0.00051 | refractive index ([2]; 313.15 K): 1.43375 ± 0.00051 | refractive index ([2]; 318.15 K): 1.43232 ± 0.00051 | refractive index ([2]; 323.15 K): 1.43087 ± 0.00051 | refractive index ([2]; 328.15 K): 1.42945 ± 0.00051 | refractive index ([2]; 333.15 K): 1.42803 ± 0.00051
